{
  "source": "ChEMBL document CHEMBL2203066",
  "about": "(J Med Chem, 2012)",
  "molecular_target": "Neuraminidase (Influenza A virus, UniProt Q6Q793)",
  "note": "pIC50: −log10 of the molar value.",
  "data": [
    {"smiles": "CCC(CC)O[C@@H]1C=C(P(=O)(O)O)C[C@H](NC(=N)N)[C@H]1NC(C)=O", "values": [
      {"measurement": "pIC50", "value": 10.40}
    ]},
    {"smiles": "CCOP(=O)(O)C1=C[C@@H](OC(CC)CC)[C@H](NC(C)=O)[C@@H](N)C1", "note": "[TAMIPHOSPHOR MONOETHYL ESTER]", "values": [
      {"measurement": "pIC50", "value": 8.66}
    ]}
  ]
}
